Here are results for 1 compound from publication PMC10888717, “Identification of Novel Non-Nucleoside Inhibitors of Zika Virus NS5 Protein Targeting MTase Activity” (International Journal of Molecular Sciences, 2024).

SMILES strings stand for the structures. “Also recorded” adds a separate entry of the source.

Data set [1] in a line: Metabolic stability in human liver microsomes. The data set is classed as in vitro ADME. As to conditions: 1 h, 37 °C, three experiments. Here is the method:
The metabolic stability was investigated by incubating selected compounds with human liver microsomes (HLMs) for 1 h at 37 °C. The percentage of non-metabolized compounds and metabolites was analyzed by HPLC-UV-MS. […] HPLC analysis confirmed the presence of the oxidated metabolites in small percentages.
For the ADME property determination, an Agilent 1260 Infinity HPLC-DAD interfaced with an Agilent MSD 6130 (Agilent Technologies, Palo Alto, CA, USA) was used. Chromatographic conditions were optimized using a Phenomenex Kinetex C18-100 Å column (150 × 4.6 mm) with 5 µm particle size and gradient elution with a binary solution (eluent A: H2O; eluent B: ACN; both eluents were acidified with formic acid 0.1% v/v) at room temperature. The LC analyses started with 5% of B (from t = 0 to t = 1 min), then B was increased to 95% (from t = 1 to t = 10 min) and then kept at 95% (from t = 10 to t = 19 min) and finally returned to initial conditions in 1.0 min. The flow rate was 0.6 mL/min and the injection volume was 10 µL.
The test was performed as previously reported with minor modifications. Each compound was dissolved in DMSO and phosphate buffer (0.025 M, pH 7.4), and human liver microsomes (0.2 mg/mL) and a NADPH-regenerating system in MgCl2 48 mM were added to a final volume of 500 µL. This solution was incubated for 1 h at 37 °C and then the reaction was stopped and quenched using 1 mL of ACN. The reaction mixtures were then centrifuged (4000 rpm for 10 min) and the supernatant was taken, dried under nitrogen flow, and then resuspended in 100 µL of methanol. The parent drug and metabolites were subsequently determined using the chromatographic conditions described above. The percentage of non-metabolized compounds was calculated by comparison with reference solutions. The determination of metabolic stability for each compound was performed in three independent experiments.

Data set [2] is described as follows: Median lethal dose assessment in Tenebrio molitor coleoptera. The data set is classed as in vivo. Conditions: in vivo, 200 mg/kg, single dose into hemocoel, 7 days observation. How it is done: (§1) The median lethal dose (LD50) was determined for compound 17 in a Tenebrio molitor coleoptera (TMC) toxicity model published previously. Due to ethical reasons, and according to the 3Rs principle, the insect model was preferred to the murine model to preliminarily evaluate the potential in vivo toxicity. […] The experiment was repeated until LD50 was determined and finally confirmed with ten TMCs. […] Even if complete pharmacokinetics should be performed to determine plasmatic levels, the administered concentration was higher than IC50. Considering that no antiviral efficacy models have been developed in insects, future studies with optimized compounds should be translated into suitable models (i.e., mice).
(§2) Tenebrio molitor coleoptera (TMC) and pupae for acute toxicity tests were fed at the University of Siena (Siena, Italy) on a diet previously published. Pupae and adult TMC were reared in semi-dark conditions at a temperature of 27 ± 1 °C and a relative humidity (RH) of 40–50%.
(§3) Median lethal dose assessment was carried out as previously published. Three days after the mutation, TMCs were randomly chosen. The appropriate amount of compound 17 was solubilized at the appropriate dose expressed in mg/kg of insect weight. […]

Data set [3] relates to Tenebrio molitor coleoptera (TMC). The description is as above. The data set is classed as in vivo. As to conditions: acute administration. How it is done:
as §1, §2, §3

Broadly, the LD50 is the dose expected to kill half of the subjects tested. A high value points to a less toxic substance. Take `CN1C(=O)c2ccc(NC(=O)c3cc4cccc(Cl)c4s3)cc2C1=O` [Compound 17]: the “HLM Stab.% ± SD (percentage of non-metabolized compound)” value in data set [1] is recorded as 96.39 ± 0.11%. The compound further had a median lethal dose (LD50) at 7 days in data set [2] of 150 mg/kg. The “in vivo toxicity (in words)” value in data set [3] was “well tolerated; also recorded: less toxic than commonly used drugs such as paracetamol and carbamazepine”.
